Earlier results in patent publication US12012625B2, “Method for producing bioactive composition” (Imam Abdulrahman Bin Faisal University, priority 2020, dated 2024).

SMILES: Cc1cc(=O)c2c(O)c3c(O)cc(=O)c4c3c3c(c(Cl)c(O)c1c23)C(C)(C)C=4O [chlorxanthomycin]
- growth inhibition (B. subtilis): inhibited the growth
- growth inhibition (B. amyloliquefaciens): inhibited the growth
